Test system: pentylenetetrazole-induced epilepsy
Assay: Pentylenetetrazole-induced epilepsy model mice
Assay type: in vivo, C57BL/6 mice
Settings: I-BRD9 10, 15, 20 mg/kg i.p. or s.c. 1 h before 45 mg/kg pentylenetetrazole i.p., compared with epilepsy model group
Source text: In the present disclosure, the animals are all 8-week-old healthy male C57BL/6 mice, weighing 22-24 grams, all purchased from Hunan SJD laboratory animal Co. LTD., license number: SCXK (Xiang) 2016-0002. C57BL/6 mice in different groups were all feed in an artificial day and night 12-hour circular lighting environment (7:00 AM-7:00 PM). The mice in the groups and were kept in cages, 4-6 mice per cage. In the cages, the mice had free access to food and water; and the daily food and water were changed regularly
Animals in each group were administered with corresponding dosage of drugs or vehicle by intraperitoneal or subcutaneous injection. 1 h later, 45 mg/kg of pentylenetetrazole was intraperitoneally injected. The behaviors and conditions of the animals were observed. Later, changes of mice behaviors were closely observed through video monitoring system for 1 h, and seizure level was evaluated by Racine grading standard. The incubation period (started after the completion the administration of pentylenetetrazole, and ended by the first time muscle spasm occurred), seizure level (subjected to the highest level) and duration period of the seizure were recorded.
Seizure level of mice were referred to a modified Racine scale:
I stage: rhythmical mouth, ears and facial twitch and spasm;
II stage: nodding and more serious facial twitch and spasm;
III stage: clonus of forelimb occurs, without up-right;
IV stage: rearing with forelimb clonus;
V stage: stiffness clonus occurs in the whole body, and falling.

With CCn1cc(-c2cccc(C(F)(F)F)c2)c2sc(C(=N)NC3CCS(=O)(=O)CC3)cc2c1=O [I-BRD9] the “seizure level (modified Racine scale)” value (FIG. 1) was “obviously reduced seizure level”, the epilepsy susceptibility (FIG. 2) was “reduced epilepsy susceptibility” and the “incubation period (onset time of epilepsy)” value (FIG. 3) was “postpone the onset time of epilepsy”.

From patent US11304935B2 (UNIVERSITY OF SOUTH CHINA, priority 2018, dated 2022)
